Source: patent US9339032B2, “Heterocyclic compounds as pesticides” (Bayer Intellectual Property GmbH, priority 2010, dated 2016)
Read-outs that look alike come from different tables or passages of the source.

What was measured:
[1] = Determination of the log P values (formic acid method) by reverse-phase HPLC; type: physicochemical; conditions: reverse-phase HPLC column (C 18), reverse-phase column (C 18), acidic range (pH 3.4), 55° C.
Procedure: 1) Description of Method for Determination of the log P Values (Formic Acid Method)
The log P values given in the table were determined in accordance with EEC Directive 79/831 Annex V.A8 by HPLC (High Performance Liquid Chromatography) using a reverse-phase column (C 18). Temperature: 55° C.
Eluents for determination in the acidic range (pH 3.4):
Eluent A: acetonitrile+1 ml of formic acid/liter. Eluent B: water+0.9 ml of formic acid/liter.
Gradient: from 10% eluent A/90% eluent B to 95% eluent A/5% eluent B in 4.25 min.
The calibration was effected with unbranched alkan-2-ones (having 3 to 16 carbon atoms) with known log P values (log P values determined on the basis of the retention times by linear interpolation between two successive alkanones). The lambda max values were determined in the maxima of the chromatographic signals using the UV spectra from 200 nm to 400 nm.

[2] = tested on: green peach aphid (Myzus persicae); experiment: Myzus test (spray treatment); type: in vivo; conditions: 500 g/ha, spray on Chinese cabbage leaf discs, after 6 days; 100% = all aphids killed
Procedure: Myzus Test (Spray Treatment) Solvent: 78 parts by weight of acetone • • 1.5 parts by weight of dimethylformamide Emulsifier: 0.5 part by weight of alkylaryl polyglycol ether To prepare an appropriate active ingredient preparation, 1 part by weight of active ingredient is mixed with the stated amounts of solvent and emulsifier, and the concentrate is diluted with emulsifier-containing water to the desired concentration. Discs of Chinese cabbage (Brassica pekinensis) infested by all stages of the green peach aphid (Myzus persicae) are sprayed with an active ingredient preparation of the desired concentration. After 6 days, the efficacy in % is determined. 100% means that all of the aphids have been killed; 0% means that none of the aphids have been killed.

Boophilus microplus = Boophilus microplus test (injection); type: in vivo; conditions: 20 μg/animal, injection into the abdomen, after 7 days; 100% = none of the ticks has laid fertile eggs
Procedure: The NMR spectra were • a) determined with a Bruker Avance 400 fitted with a flow probe head (volume 60 μl). The solvent used was CD3CN or d6-DMSO, with tetramethylsilane (0.00 ppm) used as a reference. • b) determined with a Bruker Avance II 600. The solvent used was CD3CN or d6-DMSO, with tetramethylsilane (0.00 ppm) used as a reference. The splitting of the signals was described as follows: s (singlet), d (doublet), t (triplet), q (quartet), quin (quintet), m (multiplet). Boophilus Microplus Test (Injection)
Solvent: dimethyl sulphoxide
To prepare an appropriate active ingredient formulation, 10 mg of active ingredient are mixed with 0.5 ml of solvent and the concentrate is diluted with solvent to the desired concentration. The active ingredient solution is injected into the abdomen (Boophilus microplus), and the animals are transferred into dishes and stored in a climate-controlled room. The activity is assessed by laying of fertile eggs.
After 7 days, the efficacy in % is determined. 100% means that none of the ticks has laid any fertile eggs.

chromatographic logP ([1]; table, read-out: logP (HCOOH))	SMILES	efficacy in % (aphids killed) [2] [%]	also measured
0.41	CS(=O)(=O)NC(=O)c1cnn(-c2cccnc2)c1 [Compound 16]		
1.81	O=C(NS(=O)(=O)c1ccccc1)c1cnn(-c2cncc(F)c2)c1 [Compound 17]		
0.9	CS(=O)(=O)NC(=O)c1cnn(-c2cncc(F)c2)c1 [Compound 18]		
0.69	CCS(=O)(=O)NC(=O)c1cnn(-c2cccnc2)c1 [Compound 19]		
1.08	Cc1nc(-c2cncc(F)c2)sc1C(=O)NS(C)(=O)=O [Compound 20]		
1.24	CCS(=O)(=O)NC(=O)c1cnn(-c2cncc(F)c2)c1 [Compound 21]		

More lines, now with the values behind:

SMILES	chromatographic logP ([1]; table, read-out: logP (HCOOH))	efficacy in % (aphids killed) [2] [%]	also measured
Cc1nc(-c2cccnc2)sc1NC(=O)CC(F)(F)F [Compound 1, 3,3,3-Trifluoro-N-[4-methyl-2-(pyridin-3-yl)-1,3-thiazol-5-yl]propanamide]		80	chromatographic logP ([1]; read-out: log P (HCOOH)): 1.47; efficacy in % (laying of fertile eggs) (Boophilus microplus): 100%
Cc1nc(-c2cccnc2)sc1NC(=O)Cc1ncccn1 [Compound 2, N-[4-Methyl-2-(pyridin-3-yl)-1,3-thiazol-5-yl]-2-(pyrimidin-2-yl)acetamide]		100	chromatographic logP ([1]; read-out: log P (HCOOH)): 0.74
Cc1nc(-c2cccnc2)sc1S(=O)(=O)N(C)C [Compound 3]		100	chromatographic logP ([1]; read-out: log P (HCOOH)): 1.86
CN(C)S(=O)(=O)NC(=O)c1cnn(-c2cccnc2)c1 [Compound 4, N-(Dimethylsulphamoyl)-1-(pyridin-3-yl)-1H-pyrazole-4-carboxamide]		90	chromatographic logP ([1]; read-out: log P (HCOOH)): 1.03
O=S(=O)(Nc1cnn(-c2cccnc2)c1)C(F)F [Compound 5, 1,1-Difluoro-N-[1-(pyridin-3-yl)-1H-pyrazol-4-yl]methanesulphonamide]			chromatographic logP ([1]; read-out: log P (HCOOH)): 1.01
Cc1nn(-c2cccnc2)cc1C(=O)NS(=O)(=O)c1ccccc1 [Compound 6]	1.71	100	
CN(C)S(=O)(=O)NC(=O)c1cnn(-c2cncc(F)c2)c1 [Compound 7]	1.42	100	
O=C(NS(=O)(=O)C1CC1)c1cnn(-c2cncc(F)c2)c1 [Compound 8]	1.28	90	
O=C(NS(=O)(=O)c1ccccc1)c1cnn(-c2cccnc2)c1 [Compound 9]	1.39		
Cc1nc(-c2cccnc2)sc1S(=O)(=O)NCc1ncccn1 [Compound 10]	1.35		
O=C(NS(=O)(=O)C1CC1)c1cnn(-c2cccnc2)c1 [Compound 11]	0.83		
Cc1nc(-c2cccnc2)sc1C(=O)NS(C)(=O)=O [Compound 12]	0.54		
Cc1nn(-c2cccnc2)cc1C(=O)NS(C)(=O)=O [Compound 13]	0.81		
COCCNS(=O)(=O)c1sc(-c2cccnc2)nc1C [Compound 14]	1.51		
O=C(NS(=O)(=O)C(F)(F)F)c1cnn(-c2cccnc2)c1 [Compound 15]	0.67		
CCOC(=O)c1cnn(-c2cccnc2)c1 [Ethyl 1-(pyridin-3-yl)-1H-pyrazole-4-carboxylate]			chromatographic logP ([1]; read-out: log P (HCOOH)): 1.55
